Results published in ChEMBL document CHEMBL4359921, “Discovery of potent 4-aminoquinoline hydrazone inhibitors of NRH:quinoneoxidoreductase-2 (NQO2)” (Eur J Med Chem, 2019).
pIC50: −log10 of the molar value.

How the values were obtained:
[1] = test system: SK-OV-3; test: Cytotoxicity against human SKOV3 cells assessed as reduction in cell viability incubated for 24 hrs by MTT assay; conditions: SK-OV-3, 24 h
[2] = test system: SK-OV-3; test: Cytotoxicity against human SKOV3 cells assessed as reduction in cell viability incubated for 96 hrs by MTT assay; conditions: SK-OV-3, 96 h
[3] = test system: SK-OV-3; test: Cytotoxicity against human SKOV3 cells transfected with non-targeted vector assessed as reduction in cell viability incubated for 96 hrs in presence of doxycycline by MTT assay; conditions: SK-OV-3, 96 h
[4] = test system: SK-OV-3; test: Cytotoxicity against human SKOV3 cells transfected with shRNA assessed as reduction in cell viability incubated for 96 hrs in presence of doxycycline by MTT assay; conditions: SK-OV-3, 96 h
[5] = test system: TOV112D; test: Cytotoxicity against human TOV112D cells expressing NQO2 assessed as reduction in cell viability incubated for 96 hrs by MTT assay
[6] = test system: TOV112D; test: Cytotoxicity against human TOV112D cells transfected with empty vector assessed as reduction in cell viability incubated for 96 hrs by MTT assay
[7] = target: NAD(P)H dehydrogenase [quinone] 1 (Homo sapiens, UniProt P15559); test: Inhibition of recombinant human NQO1 expressed in Escherichia coli using DCPIP as substrate by spectrophotometry
Chain of NAD(P)H dehydrogenase [quinone] 1 (P15559 whole entry): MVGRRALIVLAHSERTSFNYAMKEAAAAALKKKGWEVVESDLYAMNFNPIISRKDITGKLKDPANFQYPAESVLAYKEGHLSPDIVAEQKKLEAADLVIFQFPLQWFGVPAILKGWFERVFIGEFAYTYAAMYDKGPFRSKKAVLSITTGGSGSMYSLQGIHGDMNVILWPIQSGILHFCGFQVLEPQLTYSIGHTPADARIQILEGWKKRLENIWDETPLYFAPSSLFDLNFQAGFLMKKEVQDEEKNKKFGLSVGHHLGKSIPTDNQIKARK

Row | Structure (SMILES) | pIC50 [1] | pIC50 [2] | pIC50 [3] | pIC50 [4] | pIC50 [5] | pIC50 [6] | IC50 [7] | pIC50 ([7]; read-out: IC50)
1 | COc1ccc2nc(C)cc(N/N=C/c3cccc(OC)c3O)c2c1 | 5.68 | 5.70 | 5.57 | 5.56 | 5.42 | 5.47 |  | 
2 | COc1ccc2nc(C)cc(N/N=C/c3ccccc3)c2c1 | 5.75 | 5.76 |  |  |  |  |  | 
3 | COc1ccc2nc(C)cc(N/N=C/c3ccc(F)cc3)c2c1 | 5.64 | 5.64 |  |  |  |  |  | 
4 | COc1ccc2nc(C)cc(N/N=C/Cc3ccccc3)c2c1 | 4.30 | 4.39 | 4.35 | 4.30 | 4.39 | 4.37 | Not Active | 
5 | COc1ccc2nc(C)cc(N/N=C/c3ccc(O)cc3)c2c1 | 5.56 | 5.64 | 5.54 | 5.59 | 5.53 | 5.50 |  | 
6 | COc1ccc2nc(-c3ccccc3)cc(N/N=C/c3c[nH]cn3)c2c1 | 5.61 | 5.66 |  |  |  |  |  | 6.37
7 | COc1ccc2nc(C)cc(NNC(=O)c3ccc(F)cc3)c2c1 | < 4.00 | < 4.00 | < 4.00 | < 4.00 | 4.24 | 4.21 | Not Active | 
8 | COc1ccc2nc(-c3ccccc3)cc(N/N=C/c3cccnc3)c2c1 | 5.55 | 5.66 |  |  |  |  | Not Active | 
9 | COc1ccc2nc(-c3ccccc3)cc(N/N=C/c3cccc(OC)c3O)c2c1 | 5.54 | 5.56 |  |  |  |  | Not Active | 
10 | COc1ccc2nc(C)cc(NN)c2c1 | 4.08 | 4.39 |  |  |  |  |  | 
11 | COc1ccc2nc(-c3ccccc3)cc(N/N=C/c3ccc(N(C)C)cc3)c2c1 | 5.80 | 5.82 |  |  |  |  |  | 
12 | COc1ccc2nc(C)cc(NNC(=O)c3ccccc3)c2c1 | 4.17 | 4.36 |  |  |  |  |  | 
13 | COc1ccc2nc(C)cc(N/N=C/c3ccc(C(=O)O)cc3)c2c1 | < 4.00 | 4.15 | 4.19 | 4.21 | < 4.00 | < 4.00 | Not Active | 
14 | COc1ccc2nc(C)cc(N/N=C/c3c[nH]cn3)c2c1 | 4.49 | 5.38 | 5.16 | 5.17 | 5.43 | 5.44 |  | 
15 | Nc1c2ccccc2nc2ccccc12 [AMINACRINE] | 5.27 | 5.56 | 5.60 | 5.59 | 5.50 | 5.44 |  | 
16 | Oc1ccc(/C=C/c2cc(O)cc(O)c2)cc1 [RESVERATROL] | 4.04 | 4.44 | 4.54 | 4.40 | 4.96 | 4.97 |  | 
